pIC50: −log10 of the molar value.
Target: human recombinant H-PGDS (Homo sapiens, UniProt O60760)
Experiment: Fluorescence Intensity h-PGDS TBA Enzyme Assay
Assay type: biochemical
Conditions: 1:175,000 human recombinant H-PGDS, highest inhibitor concentration typically 1 μM
Summary of the method: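 Recombinant human H-PGDS preincubated 10 min at room temperature with inhibitor in 100 mM Tris pH 8.0, 100 μM MgCl2, 2.5 mM glutathione, 0.5% DMSO; 5.0 μM PGH2 added, stopped after 42 s with FeCl2/citric acid. Remaining PGH2 measured as MDA–TBA fluorescence (ex 530/em 565 nm); IC50 by 4-parameter fit, 11 concentrations.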

human recombinant H-PGDS, sequence (O60760 whole entry): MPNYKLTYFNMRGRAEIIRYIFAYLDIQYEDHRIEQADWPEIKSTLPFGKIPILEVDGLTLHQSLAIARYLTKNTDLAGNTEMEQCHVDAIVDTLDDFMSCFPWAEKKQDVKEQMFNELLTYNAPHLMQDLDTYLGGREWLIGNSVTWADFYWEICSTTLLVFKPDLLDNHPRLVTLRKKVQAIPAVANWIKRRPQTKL

| SMILES | pIC50 |
| --- | --- |
| CNS(=O)(=O)c1ccc(CNC(=O)c2ccc(-c3cccc(C)c3)nc2)cc1 [Example 218, N-{4-[(Methylamino)sulfonyl]benzyl}-6-(3-methylphenyl)nicotinamide] | 7.56 |
| CN1CCC(CCNC(=O)c2ccc(-c3ccccc3)nc2)CC1 [Example 388, N-[2-(1-Methylpiperidin-4-yl)ethyl]-6-phenylnicotinamide] | 7.80 |
| COC(C)(C)CNC(=O)c1ccc(-c2ccc(F)cc2)nc1 [Example 497, 6-(4-Fluorophenyl)-N-(2-methoxy-2-methylpropyl)nicotinamide] | ≤ 6.00 |
| O=C(NC1COC2(CCN(c3nc4ccccc4[nH]3)CC2)C1)c1ccc(-c2cccc(F)c2)nc1 (centres unmarked) [Example 150, N-[8-(1H-Benzimidazol-2-yl)-1-oxa-8-azaspiro[4.5]dec-3-yl]-6-(3-fluorophenyl)nicotinamide] | 8.54 |
| COCCN1CCC(CNC(=O)c2ccc(-c3cccc(F)c3)nc2)CC1 [Example 19, 6-(3-Fluorophenyl)-N-{[1-(2-methoxyethyl)piperidin-4-yl]methyl}nicotinamide] | 6.93 |
| COc1cccc(-c2ccc(C(=O)Nc3ccncc3)cn2)c1 [Example 336, 6-(3-Methoxyphenyl)-N-pyridin-4-ylnicotinamide] | 7.06 |
| COC(=O)CC(NC(=O)c1ccc(-c2ccc(F)cc2)nc1)c1cccnc1 (centres unmarked) [Example 323, Methyl 3-({[6-(4-fluorophenyl)pyridin-3-yl]carbonyl}amino)-3-pyridin-3-ylpropanoate] | ≤ 6.00 |
| COC(=O)c1ccc(CNC(=O)c2ccc(-c3cccc(C)c3)nc2)cc1 [Example 455, Methyl 4-[({[6-(3-methylphenyl)pyridin-3-yl]carbonyl}amino)methyl] benzoate] | 7.02 |
| O=C(NCCN1CCCCC1)c1ccc(-c2ccc(F)cc2)nc1 [Example 324, 6-(4-Fluorophenyl)-N-(2-piperidin-1-ylethyl)nicotinamide] | ≤ 6.00 |
| CCCCN1CC(CNC(=O)c2ccc(-c3cccc(F)c3)nc2)OCC1=O (centres unmarked) [Example 70, N-[(4-Butyl-5-oxomorpholin-2-yl)methyl]-6-(3-fluorophenyl)nicotinamide] | 7.47 |
| CCC1CCN(CCNC(=O)c2ccc(-c3ccc(F)cc3)nc2)CC1 [Example 468, N-[2-(4-Ethylpiperidin-1-yl)ethyl]-6-(4-fluorophenyl)nicotinamide] | 6.16 |
| O=C(NCc1ccco1)c1ccc(-c2ccccc2)nc1 [Example 379, N-(2-Furylmethyl)-6-phenylnicotinamide] | 8.32 |
| COc1cccc(-c2ccc(C(=O)NC3CCN(Cc4ccc(Cl)c(Cl)c4)C3=O)cn2)c1 (centres unmarked) [Example 296, N-[1-(3,4-Dichlorobenzyl)-2-oxopyrrolidin-3-yl]-6-(3-methoxyphenyl)nicotinamide] | 6.68 |
| Cc1ccc(CN2CCC(NC(=O)c3ccc(-c4ccc(F)cc4)nc3)C2=O)cc1 (centres unmarked) [Example 259, 6-(4-Fluorophenyl)-N-[1-(4-methylbenzyl)-2-oxopyrrolidin-3-yl]nicotinamide] | 6.55 |
| Cc1ccc2c(c1)C(NC(=O)c1ccc(-c3cc(F)cc(F)c3)nc1)CC(C)(C)O2 (centres unmarked) [Example 536, 6-(3,5-Difluorophenyl)-N-(2,2,6-trimethyl-3,4-dihydro-2H-chromen-4-yl)nicotinamide] | 7.27 |
| CC(=O)N1CCC(CNC(=O)c2ccc(-c3cccc(F)c3)nc2)CC1 [Example 178, N-[(1-Acetylpiperidin-4-yl)methyl]-6-(3-fluorophenyl)nicotinamide] | 8.16 |
| O=C(NCCN1CCN(Cc2ccccc2)CC1)c1ccc(-c2ccccc2)nc1 [Example 382, N-[2-(4-Benzylpiperazin-1-yl)ethyl]-6-phenylnicotinamide] | 8.04 |
| Cc1cccc(-c2ccc(C(=O)NC(C)C)cn2)c1 [Example 254, N-Isopropyl-6-(3-methylphenyl)nicotinamide] | 7.55 |
| CC(=O)N1CCC(CNC(=O)c2ccc(-c3ccccc3)nc2)CC1 [Example 387, N-[(1-Acetylpiperidin-4-yl)methyl]-6-phenylnicotinamide] | 7.68 |
| O=C(NCc1cc(F)cc2c1OCOC2)c1ccc(-c2ccc(F)cc2)nc1 [Example 472, N-[(6-Fluoro-4H-1,3-benzodioxin-8-yl)methyl]-6-(4-fluorophenyl)nicotinamide] | 6.59 |
| CCOC(=O)CC[C@H](NC(=O)c1ccc(-c2ccccc2)nc1)C(=O)OCC [Example 396, Diethyl N-[(6-phenylpyridin-3-yl)carbonyl]-L-glutamate] | 8.52 |
| COC(=O)CCNC(=O)c1ccc(-c2cccc(C)c2)nc1 [Example 223, Methyl N-{[6-(3-methylphenyl)pyridin-3-yl]carbonyl}-beta-alaninate] | 7.36 |
| COc1ccc(CNC(=O)c2cnc(-c3cccc(F)c3)c(Cl)c2)cc1OC [Example 545, 5-Chloro-N-(3,4-dimethoxybenzyl)-6-(3-fluorophenyl)nicotinamide] | 7.85 |
| O=C(NCC1CC2(CCN(Cc3cc[nH]n3)CC2)CO1)c1ccc(-c2cccc(F)c2)nc1 (centres unmarked) [Example 51, 6-(3-Fluorophenyl)-N-{[8-(1H-pyrazol-3-ylmethyl)-2-oxa-8-azaspiro[4.5]dec-3-yl]methyl}nicotinamide] | 7.60 |
| CC(O)CNC(=O)c1ccc(-c2ccccc2)nc1 (centres unmarked) [Example 390, N-(2-Hydroxypropyl)-6-phenylnicotinamide] | 7.89 |
| O=C(Nc1ccncc1)c1ccc(-c2ccc(F)cc2)nc1 [Example 459, 6-(4-Fluorophenyl)-N-pyridin-4-ylnicotinamide] | 6.65 |

The next lines start with the values.

| pIC50 | SMILES |
| --- | --- |
| 6.47 | CN(C)CCNC(=O)c1ccc(-c2cccc(F)c2)nc1 [Example 158, N-[2-(Dimethylamino)ethyl]-6-(3-fluorophenyl)nicotinamide] |
| 7.75 | NC(=O)[C@H](Cc1ccccc1)NC(=O)c1ccc(-c2cccc(F)c2)nc1 [Example 29, Nalpha-{[6-(3-fluorophenyl)pyridin-3-yl]carbonyl} phenylalaninamide] |
| 7.48 | O=C(NCc1nnc(Cc2ccccc2)o1)c1ccc(-c2cccc(F)c2)nc1 [Example 57, N-[(5-Benzyl-1,3,4-oxadiazol-2-yl)methyl]-6-(3-fluorophenyl)nicotinamide] |
| 7.41 | CC(O)CNC(=O)c1ccc(-c2cccc(F)c2)nc1 (centres unmarked) [Example 198, 6-(3-Fluorophenyl)-N-(2-hydroxypropyl)nicotinamide] |
| 6.23 | O=C(NCC(c1ccccc1Cl)N1CCOCC1)c1ccc(-c2cccc(F)c2)nc1 (centres unmarked) [Example 445, N-[2-(2-Chlorophenyl)-2-morpholin-4-ylethyl]-6-(3-fluorophenyl)nicotinamide] |
| 7.88 | CCOC(=O)CCNC(=O)c1ccc(-c2cccc(F)c2)nc1 [Example 209, Ethyl N-{[6-(3-fluorophenyl)pyridin-3-yl]carbonyl}-beta-alaninate] |
| 7.70 | O=C(NCCCCO)c1ccc(-c2cccc(F)c2)nc1 [Example 149, 6-(3-Fluorophenyl)-N-(4-hydroxybutyl)nicotinamide] |
| 7.47 | O=C(NCc1nc2cc(F)ccc2[nH]1)c1ccc(-c2cccc(F)c2)nc1 [Example 146, N-[(5-Fluoro-1H-benzimidazol-2-yl)methyl]-6-(3-fluorophenyl)nicotinamide] |
| 7.89 | O=C(NCCc1cn2cccnc2n1)c1ccc(-c2cccc(F)c2)nc1 [Example 6, 6-(3-Fluorophenyl)-N-(2-imidazo[1,2-a]pyrimidin-2-ylethyl)nicotinamide] |
| 8.06 | CC(NC(=O)c1ccc(-c2cccc(F)c2)nc1)c1ccccc1 (centres unmarked) [Example 423, 6-(3-Fluorophenyl)-N-(1-phenylethyl)nicotinamide] |
| 8.25 | O=C(NCc1coc(-c2ccc(F)cc2)n1)c1ccc(-c2cccc(F)c2)nc1 [Example 535, 6-(3-Fluorophenyl)-N-{[2-(4-fluorophenyl)-1,3-oxazol-4-yl]methyl}nicotinamide] |
| 7.80 | O=C(NCCCN1CCCC1=O)c1ccc(-c2cccc(F)c2)nc1 [Example 156, 6-(3-Fluorophenyl)-N-[3-(2-oxopyrrolidin-1-yl)propyl]nicotinamide] |
| 6.97 | CN1CCN(CCCNC(=O)c2ccc(-c3cccc(F)c3)nc2)CC1 [Example 111, 6-(3-Fluorophenyl)-N-[3-(4-methylpiperazin-1-yl)propyl]nicotinamide] |
| 6.84 | CCOC(=O)C(CNC(=O)c1ccc(-c2cccc(F)c2)nc1)c1c(F)cccc1F (centres unmarked) [Example 163, Ethyl 2-(2,6-difluorophenyl)-3-({[6-(3-fluorophenyl)pyridin-3-yl]carbonyl}amino)propanoate] |
| 8.45 | Cc1nc(CCNC(=O)c2ccc(-c3cccc(F)c3)nc2)cs1 [Example 2, 6-(3-Fluorophenyl)-N-[2-(2-methyl-1,3-thiazol-4-yl)ethyl]nicotinamide] |
| 7.10 | Cc1cccc(-c2ccc(C(=O)NCc3ccc(F)cc3)cn2)c1 [Example 314, N-(4-Fluorobenzyl)-6-(3-methylphenyl)nicotinamide] |
| 7.15 | O=C(NC(c1ccccc1)c1nc(CN2CCOCC2)no1)c1ccc(-c2cccc(F)c2)nc1 (centres unmarked) [Example 15, 6-(3-Fluorophenyl)-N-{[3-(morpholin-4-ylmethyl)-1,2,4-oxadiazol-5-yl](phenyl)methyl}nicotinamide] |
| 6.33 | CCCCNC(=O)c1ccc(-c2cccc(OC)c2)nc1 [Example 289, N-Butyl-6-(3-methoxyphenyl)nicotinamide] |
| 7.00 | COc1ccc(OCCNC(=O)c2ccc(-c3cccc(F)c3)nc2)cc1 [Example 434, 6-(3-Fluorophenyl)-N-[2-(4-methoxyphenoxy)ethyl] nicotinamide] |
| 7.97 | COc1cccn(CCNC(=O)c2ccc(-c3cccc(F)c3)nc2)c1=O [Example 48, 6-(3-Fluorophenyl)-N-[2-(3-methoxy-2-oxopyridin-1(2H)-yl)ethyl]nicotinamide] |
| 7.02 | Cc1cc(C)nc(CNC(=O)c2ccc(-c3cccc(F)c3)nc2)n1 [Example 95, N-[(4,6-Dimethylpyrimidin-2-yl)methyl]-6-(3-fluorophenyl)nicotinamide] |

— US20110306597A1, “Nicotinamide Derivatives” (priority 2008, published 2011)
